In PubChem BioAssay AID1963873 (Molecular Pharmacology Branch, DTP, NCI, 2024):

System: 276233-004-R-J1-PDC KRAS spheroids with HUVEC/MSC, viability
Assay: Anticancer human tumor 276233-004-R-J1-PDC patient-derived colon adenocarcinoma cell line growth inhibition [KRAS2]
Settings: for viability, T/C: stronger effect = lower value
Summary of the method: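 KRAS-mutant tumor cells were grown as spheroids with HUVEC endothelial cells and human MSCs as stroma. Targeted agents were tested alone and with KRAS pathway inhibitors. Doses started at or near clinical Cmax, or 10 microM, descending half-log.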

[1] = curve of first compound, second compound 0.1 µM
[2] = curve of first compound, second compound 0.316 µM
[3] = curve of first compound, second compound 1 µM
[4] = curve of first compound, second compound 3.16 µM
[5] = second compound 0.1 µM, first compound 0.0316 µM
[6] = second compound 0.316 µM, first compound 0.0316 µM
[7] = second compound 1 µM, first compound 0.0316 µM
[8] = second compound 3.16 µM, first compound 0.0316 µM
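Also: cells exposed to agents for seven days before viability read.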
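For viability, T/C in this document: 100% = DMSO vehicle control wells and lower values mean fewer viable cells.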

CC(C)NCC(C(=O)N1CCN(c2ncnc3c2C(C)CC3O)CC1)c1ccc(Cl)cc1 (stereo not given) was tested, and the viability, T/C (compound 0.0316 µM) was 91% [middle of 5 runs], the viability, T/C (compound 0.1 µM) was 91.5% [middle of 5 runs] and the viability, T/C (compound 0.316 µM) was 79.8% [middle of 5 runs]. The viability, T/C (compound 10 µM) was 73.1% [middle of 5 runs] and the IC50 (curve of compound) was > 10000 nM.

In the case of CC(=O)Nc1cccc(-n2c(=O)n(C3CC3)c(=O)c3c(Nc4ccc(I)cc4F)n(C)c(=O)c(C)c32)c1 + C=CC(=O)N1CCN(c2nc(OCC3CCCN3C)nc3c2CCN(c2cccc4cccc(C)c24)C3)CC1CC#N, the IC50 (curve of first compound, second compound 0.0316 µM) is reported as 7.53 nM, the IC50 [1] is reported as 9.05 nM and the IC50 [2] is reported as 4.73 nM. It also gave an IC50 [3] of 2.49 nM, an IC50 [4] of 0.141 nM and a viability, T/C (second compound 0.0316 µM, first compound 0.0001 µM) of 79.5%. The viability, T/C (second compound 0.0316 µM, first compound 0.000316 µM) was 92.4%, the viability, T/C (second compound 0.0316 µM, first compound 0.001 µM) was 81.2% and the viability, T/C (second compound 0.0316 µM, first compound 0.00316 µM) was 66.9%. The viability, T/C (second compound 0.0316 µM, first compound 0.01 µM) was 44.9%, the viability, T/C (second compound 0.0316 µM, first compound 0.0316 µM) was 16.8% and the viability, T/C (second compound 0.1 µM, first compound 0.0001 µM) was 82.2%. For the same compound, the viability, T/C (second compound 0.1 µM, first compound 0.000316 µM) was 86.3%, the viability, T/C (second compound 0.1 µM, first compound 0.001 µM) was 72.8% and the viability, T/C (second compound 0.1 µM, first compound 0.00316 µM) was 63.1%. It also gave a viability, T/C (second compound 0.1 µM, first compound 0.01 µM) of 50.4%, a viability, T/C [5] of 22.6% and a viability, T/C (second compound 0.316 µM, first compound 0.0001 µM) of 76.1%. It also gave a viability, T/C (second compound 0.316 µM, first compound 0.000316 µM) of 83.7%, a viability, T/C (second compound 0.316 µM, first compound 0.001 µM) of 61.6% and a viability, T/C (second compound 0.316 µM, first compound 0.00316 µM) of 64.7%. For the same compound, the viability, T/C (second compound 0.316 µM, first compound 0.01 µM) was 31.5%, the viability, T/C [6] was 10% and the viability, T/C (second compound 1 µM, first compound 0.0001 µM) was 93.3%. For the same compound, the viability, T/C (second compound 1 µM, first compound 0.000316 µM) was 95.9%, the viability, T/C (second compound 1 µM, first compound 0.001 µM) was 60.6% and the viability, T/C (second compound 1 µM, first compound 0.00316 µM) was 47%. For the same compound, the viability, T/C (second compound 1 µM, first compound 0.01 µM) was 25.4%, the viability, T/C [7] was 7% and the viability, T/C (second compound 3.16 µM, first compound 0.0001 µM) was 57.5%. The viability, T/C (second compound 3.16 µM, first compound 0.000316 µM) was 32.3%, the viability, T/C (second compound 3.16 µM, first compound 0.001 µM) was 16.7% and the viability, T/C (second compound 3.16 µM, first compound 0.00316 µM) was 14.7%. The viability, T/C (second compound 3.16 µM, first compound 0.01 µM) was 4.17% and the viability, T/C [8] was 3.27%.

CCNC(=O)CC1N=C(c2ccc(Cl)cc2)c2cc(OC)ccc2-n2c(C)nnc21 (stereo not given) + C=CC(=O)N1CCN(c2nc(=O)n(-c3c(C)ccnc3C(C)C)c3nc(-c4c(O)cccc4F)c(F)cc23)C(C)C1 was tested, and the IC50 [1] was > 10000 nM, the IC50 [2] was > 10000 nM and the IC50 [3] was > 10000 nM. For the same compound, the IC50 [4] was > 10000 nM, the IC50 (curve of first compound, second compound 10 µM) was > 10000 nM and the viability, T/C [5] was 102%. It also gave a viability, T/C (second compound 0.1 µM, first compound 0.1 µM) of 86.5%, a viability, T/C (second compound 0.1 µM, first compound 0.316 µM) of 78.5% and a viability, T/C (second compound 0.1 µM, first compound 1 µM) of 76.6%. For the same compound, the viability, T/C (second compound 0.1 µM, first compound 3.16 µM) was 62.6%, the viability, T/C (second compound 0.1 µM, first compound 10 µM) was 65.4% and the viability, T/C [6] was 111%. It also gave a viability, T/C (second compound 0.316 µM, first compound 0.1 µM) of 92.8%, a viability, T/C (second compound 0.316 µM, first compound 0.316 µM) of 72% and a viability, T/C (second compound 0.316 µM, first compound 1 µM) of 81.5%. The viability, T/C (second compound 0.316 µM, first compound 3.16 µM) was 69.7%, the viability, T/C (second compound 0.316 µM, first compound 10 µM) was 79.3% and the viability, T/C [7] was 87.5%. For the same compound, the viability, T/C (second compound 1 µM, first compound 0.1 µM) was 101%, the viability, T/C (second compound 1 µM, first compound 0.316 µM) was 72.7% and the viability, T/C (second compound 1 µM, first compound 1 µM) was 63.3%. For the same compound, the viability, T/C (second compound 1 µM, first compound 3.16 µM) was 81%, the viability, T/C (second compound 1 µM, first compound 10 µM) was 71.5% and the viability, T/C [8] was 84.4%. It also gave a viability, T/C (second compound 3.16 µM, first compound 0.1 µM) of 87.1%, a viability, T/C (second compound 3.16 µM, first compound 0.316 µM) of 108% and a viability, T/C (second compound 3.16 µM, first compound 1 µM) of 49.4%. For the same compound, the viability, T/C (second compound 3.16 µM, first compound 3.16 µM) was 83.2%, the viability, T/C (second compound 3.16 µM, first compound 10 µM) was 69.3% and the viability, T/C (second compound 10 µM, first compound 0.0316 µM) was 79.6%. For the same compound, the viability, T/C (second compound 10 µM, first compound 0.1 µM) was 63.3%, the viability, T/C (second compound 10 µM, first compound 0.316 µM) was 66.2% and the viability, T/C (second compound 10 µM, first compound 1 µM) was 61.3%. For the same compound, the viability, T/C (second compound 10 µM, first compound 3.16 µM) was 74.7% and the viability, T/C (second compound 10 µM, first compound 10 µM) was 54.2%.
